# How the values were obtained:
# Format in all cases: in vivo
# [1] = test system: Pharbitis purpureum (PHBPU); test: Pre-emergence herbicidal action against weed plants; conditions: scored after 3 to 4 weeks
# Text: (§1) 1. Pre-emergence Herbicidal Action Against Weed Plants Seeds or rhizome sections of mono- and dicotyledonous weed plants are set out in pots of 9 to 13 cm in diameter, in sandy loam soil, and are covered with soil. The herbicides, formulated as emulsifiable concentrates or dusts, are applied to the surface of the covering earth in the form of aqueous dispersions or suspensions or emulsions, at a water application rate of 300 to 800 l/ha (converted). The pots are then maintained under glass under optimum conditions for the further cultivation of the plants. After 3 to 4 weeks under optimum growth conditions under glass, the trial plants are scored for the effect of the compounds according to the invention in comparison to compounds disclosed in the prior art. […] [table]
# Viola tricolor (VIOTR) [2] = test: as above; conditions: scored after 3 to 4 weeks
# Text: as §1
# [3] = test system: Pharbitis purpureum (PHBPU); test: Post-emergence herbicidal action against weed plants; conditions: scored after 3 to 4 weeks
# Procedure: (§2) [table] 2. Post-emergence Herbicidal Action Against Weed Plants Seeds of monocotyledonous and dicotyledonous weed plants are set out in cardboard pots in sandy loam soil, covered with soil, and cultivated under glass under good growth conditions. Two to three weeks after sowing, the trial plants are treated at the three-leaf stage. The compounds according to the invention, formulated as wettable powders or as emulsifiable concentrates, are sprayed onto the surface of the green parts of the plants, at a water application rate of 600 to 800 l/ha (converted). After the trial plants have stood for 3 to 4 weeks under optimum growth conditions under glass, the action of the compounds according to the invention is scored in comparison to compounds disclosed in the prior art.
# Viola tricolor (VIOTR) [4] = test: as above; conditions: dose 80 g a.c./ha, scored after 3 to 4 weeks, Comparison Table 11
# Procedure: as §2
# Setaria viridis (SETVI) [5] = test: as above; conditions: dose 80 g a.c./ha, scored after 3 to 4 weeks, Comparison Table 11
# Procedure: as §2
# Avena fatua (AVEFA) = test: Pre-emergence herbicidal action against weed plants; conditions: dose 320 g a.c./ha, scored after 3 to 4 weeks, Comparison Table 4
# Text: as §1
# [6] = test system: Matricaria inodora (MATIN); test: as above; conditions: dose 320 g a.c./ha, scored after 3 to 4 weeks, Comparison Table 4
# Text: as §1
# Setaria viridis (SETVI) [7] = test: as above; conditions: dose 80 g a.c./ha, scored after 3 to 4 weeks, Comparison Table 5
# Text: as §1
# [8] = test system: Alopecurus myosuroides (ALOMY); test: Post-emergence herbicidal action against weed plants; conditions: scored after 3 to 4 weeks
# Procedure: as §2
# [9] = test system: Amaranthus retroflexus (AMARE); test: as above; conditions: dose 80 g a.c./ha, scored after 3 to 4 weeks, Comparison Table 8
# Procedure: as §2
# [10] = test system: Matricaria inodora (MATIN); test: as above; conditions: dose 80 g a.c./ha, scored after 3 to 4 weeks
# Procedure: as §2
# [11] = test system: Echinochloa crus galli (ECHCG); test: as above; conditions: dose 80 g a.c./ha, scored after 3 to 4 weeks
# Procedure: as §2
# [12] = dose 80 g a.c./ha, Comparison Table 2
# [13] = dose 80 g a.c./ha, Comparison Table 11
# [14] = dose 320 g a.c./ha, Comparison Table 1
# [15] = dose 320 g a.c./ha, Comparison Table 3
# [16] = dose 320 g a.c./ha, Comparison Table 4
# [17] = dose 80 g a.c./ha, Comparison Table 5
# [18] = dose 80 g a.c./ha, Comparison Table 6
# [19] = dose 80 g a.i./ha, Comparison Table 7
# [20] = dose 80 g a.c./ha, Comparison Table 8
# [21] = dose 80 g a.c./ha, Comparison Table 9
# [22] = dose 80 g a.c./ha, Comparison Table 10
smiles,measurement,setting,value
CCn1ncc(C(=O)c2ccc(C(F)(F)F)c([S+](C)[O-])c2C)c1O (stereo not drawn),Herbicidal action against PHBPU,[1]; [12],0%
same,Herbicidal action against VIOTR,Viola tricolor (VIOTR) [2]; [12],50%
Cc1nn(C)c(O)c1C(=O)c1ccc(C(F)(F)F)c(S(C)(=O)=O)c1C,Herbicidal action against PHBPU,[3]; [13],80%
same,Herbicidal action against VIOTR,Viola tricolor (VIOTR) [4],80%
same,Herbicidal action against SETVI,Setaria viridis (SETVI) [5],60%
Cc1c(C(=O)C2C(=O)C3CCC(C3)C2=O)ccc(C(F)(F)C(F)(F)F)c1[S+](C)[O-] (stereo not drawn) [drawing 13],Herbicidal action against PHBPU,[1]; [14],90%
same,Herbicidal action against VIOTR,Viola tricolor (VIOTR) [2]; [14],100%
Cc1c(C(=O)c2cnn(C)c2O)ccc(C(F)(F)F)c1[S+](C)[O-] (stereo not drawn) [drawing 14],Herbicidal action against PHBPU,[1]; [14],50%
same,Herbicidal action against VIOTR,Viola tricolor (VIOTR) [2]; [14],90%
Cc1c(C(=O)C2C(=O)C3CCC(C3)C2=O)ccc(C(F)(F)C(F)(F)F)c1[S+](C)[O-] (stereo not drawn) [drawing 15],Herbicidal action against PHBPU,[1]; [12],80%
same,Herbicidal action against VIOTR,Viola tricolor (VIOTR) [2]; [12],100%
Cc1c(C(=O)C2C(=O)C3CCC(C3)C2=O)ccc(C(F)(F)C(F)(F)F)c1[S+](C)[O-] (stereo not drawn) [drawing 17],Herbicidal action against PHBPU,[1]; [15],90%
same,Herbicidal action against VIOTR,Viola tricolor (VIOTR) [2]; [15],100%
Cc1nn(C)c(O)c1C(=O)c1ccc(C(F)(F)F)c([S+](C)[O-])c1C (stereo not drawn) [drawing 18],Herbicidal action against PHBPU,[1]; [15],60%
same,Herbicidal action against VIOTR,Viola tricolor (VIOTR) [2]; [15],40%
Cc1c(C(=O)C2C(=O)C3CCC(C3)C2=O)ccc(C(F)(F)C(F)(F)F)c1S(C)(=O)=O (stereo not drawn) [drawing 19],Herbicidal action against PHBPU,[1]; [16],90%
same,Herbicidal action against AVEFA,Avena fatua (AVEFA),80%
same,Herbicidal action against MATIN,[6],100%
CCn1ncc(C(=O)c2ccc(C(F)(F)F)c(S(C)(=O)=O)c2C)c1O [drawing 20],Herbicidal action against PHBPU,[1]; [16],50%
same,Herbicidal action against AVEFA,Avena fatua (AVEFA),40%
same,Herbicidal action against MATIN,[6],90%
Cc1c(C(=O)C2C(=O)C3CCC(C3)C2=O)ccc(C(F)(F)C(F)(F)F)c1S(C)(=O)=O (stereo not drawn) [drawing 21],Herbicidal action against VIOTR,Viola tricolor (VIOTR) [2]; [17],100%
same,Herbicidal action against SETVI,Setaria viridis (SETVI) [7],100%
Cc1c(C(=O)c2cnn(C)c2O)ccc(C(F)(F)F)c1S(C)(=O)=O [drawing 22],Herbicidal action against VIOTR,Viola tricolor (VIOTR) [2]; [17],50%
same,Herbicidal action against SETVI,Setaria viridis (SETVI) [7],60%
Cc1c(C(=O)C2C(=O)C3CCC(C3)C2=O)ccc(C(F)(F)C(F)(F)F)c1[S+](C)[O-] (stereo not drawn) [drawing 23],Herbicidal action against PHBPU,[3]; [18],100%
same,Herbicidal action against ALOMY,[8]; [18],90%
Cc1c(C(=O)c2cnn(C)c2O)ccc(C(F)(F)F)c1[S+](C)[O-] (stereo not drawn) [drawing 24],Herbicidal action against PHBPU,[3]; [18],60%
same,Herbicidal action against ALOMY,[8]; [18],60%
Cc1c(C(=O)C2C(=O)C3CCC(C3)C2=O)ccc(C(F)(F)C(F)(F)F)c1[S+](C)[O-] (stereo not drawn) [drawing 25],Herbicidal action against PHBPU,[3]; [19],100%
same,Herbicidal action against ALOMY,[8]; [19],90%
Cc1c(C(=O)c2cnn(C)c2O)ccc(C(F)(F)F)c1[S+](C)[O-] (stereo not drawn) [drawing 26],Herbicidal action against PHBPU,[3]; [19],80%
same,Herbicidal action against ALOMY,[8]; [19],60%
Cc1c(C(=O)C2C(=O)C3CCC(C3)C2=O)ccc(C(F)(F)C(F)(F)F)c1[S+](C)[O-] (stereo not drawn) [drawing 27],Herbicidal action against PHBPU,[3]; [20],100%
same,Herbicidal action against ALOMY,[8]; [20],90%
same,Herbicidal action against AMARE,[9],100%
Cc1nn(C)c(O)c1C(=O)c1ccc(C(F)(F)F)c([S+](C)[O-])c1C (stereo not drawn) [drawing 28],Herbicidal action against PHBPU,[3]; [20],50%
same,Herbicidal action against ALOMY,[8]; [20],30%
same,Herbicidal action against AMARE,[9],50%
Cc1c(C(=O)C2C(=O)C3CCC(C3)C2=O)ccc(C(F)(F)C(F)(F)F)c1S(C)(=O)=O (stereo not drawn) [drawing 29],Herbicidal action against PHBPU,[3]; [21],90%
same,Herbicidal action against MATIN,[10]; Comparison Table 9,100%
same,Herbicidal action against ECHCG,[11]; Comparison Table 9,100%
Cc1c(C(=O)c2cnn(C)c2O)ccc(C(F)(F)F)c1S(C)(=O)=O [drawing 30],Herbicidal action against PHBPU,[3]; [21],80%
same,Herbicidal action against MATIN,[10]; Comparison Table 9,55%
same,Herbicidal action against ECHCG,[11]; Comparison Table 9,95%
Cc1c(C(=O)C2C(=O)C3CCC(C3)C2=O)ccc(C(F)(F)C(F)(F)F)c1S(C)(=O)=O (stereo not drawn) [drawing 31],Herbicidal action against PHBPU,[3]; [22],90%
same,Herbicidal action against MATIN,[10]; Comparison Table 10,100%
same,Herbicidal action against ECHCG,[11]; Comparison Table 10,100%
CCn1ncc(C(=O)c2ccc(C(F)(F)F)c(S(C)(=O)=O)c2C)c1O [drawing 32],Herbicidal action against PHBPU,[3]; [22],40%
same,Herbicidal action against MATIN,[10]; Comparison Table 10,90%
same,Herbicidal action against ECHCG,[11]; Comparison Table 10,90%
Cc1c(C(=O)C2C(=O)C3CCC(C3)C2=O)ccc(C(F)(F)C(F)(F)F)c1S(C)(=O)=O (stereo not drawn) [drawing 33],Herbicidal action against PHBPU,[3]; [13],90%
same,Herbicidal action against VIOTR,Viola tricolor (VIOTR) [4],100%
same,Herbicidal action against SETVI,Setaria viridis (SETVI) [5],100%

# Source: patent US8603947B2, “(4-haloalkyl-3-thiobenzoyl)cyclohexanediones and use thereof as herbicides” (Bayer Cropscience AG, priority 2010, dated 2013)
